This is an account of results in publication PMC4066673 (Biochemistry, 2012).

Assay [1] deals with T1, hTHEM4 (Homo sapiens, UniProt Q5T1C6). The experiment in a line: product inhibition of thioesterase activity. The format is biochemical.
The target of assay [2] is T1, hTHEM4. The experiment in a line: substrate hydrolysed in the competitive inhibition assay. The format is biochemical.

SMILES strings stand for the structures.

T1 sequence (Q5T1C6 37-240): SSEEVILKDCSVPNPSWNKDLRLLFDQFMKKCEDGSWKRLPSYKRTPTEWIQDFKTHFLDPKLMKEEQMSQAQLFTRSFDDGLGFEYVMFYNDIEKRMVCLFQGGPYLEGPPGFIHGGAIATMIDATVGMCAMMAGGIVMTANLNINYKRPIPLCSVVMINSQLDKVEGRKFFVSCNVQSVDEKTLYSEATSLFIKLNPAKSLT

By Ki is commonly meant a measure of affinity in units of concentration, obtained from inhibition or displacement. Low readings indicate higher affinity, high ones lower affinity. With `CC(C)(COP(=O)(O)OP(=O)(O)OC[C@H]1O[C@@H](n2cnc3c(N)ncnc32)[C@H](O)[C@@H]1OP(=O)(O)O)[C@@H](O)C(=O)NCCC(=O)NCCS` [CoA], the Ki on hTHEM4 [1] amounted to 81 ± 1 µM.
Turning to `CCCCCCCCCC(=O)SCCNC(=O)CCNC(=O)[C@H](O)C(C)(C)COP(=O)(O)OP(=O)(O)OC[C@H]1O[C@@H](n2cnc3c(N)ncnc32)[C@H](O)[C@@H]1OP(=O)(O)O` [decanoyl-CoA], at hTHEM4 [2], the “substrate hydrolysed in the competitive inhibition assay” value is given as “competitive inhibitor of hTHEM4-catalyzed decanoyl-CoA hydrolysis”.
